Measurements: patent US9145392B2, “Imidazole amines as modulators of kinase activity” (Merck Patent GmbH, priority 2011, dated 2015)
pIC50: −log10 of the molar value.

Target: P70S6K (T412E mutant) (Homo sapiens (Human), UniProt P23443, T412E)
Assay: P70S6K enzyme assay
Assay type: biochemical
Details: read-out: IC50 p70S6K
Procedure: P70S6K inhibitor compounds are diluted and plated in 96 well plates. […] The reaction is incubated for 90 min at 25° C., before the addition of 10 mM EDTA to stop the reaction. The proportion of substrate and product (phosphorylated) peptide is analysed on a Caliper Life Sciences Lab Chip 3000, using a pressure of −1.4 psi, and upstream and downstream voltages of −3000 and −700 respectively. Product peaks are resolved before substrate peaks on the resulting chromatograms.

Chain of P70S6K (T412E mutant) (P23443 whole entry T412E): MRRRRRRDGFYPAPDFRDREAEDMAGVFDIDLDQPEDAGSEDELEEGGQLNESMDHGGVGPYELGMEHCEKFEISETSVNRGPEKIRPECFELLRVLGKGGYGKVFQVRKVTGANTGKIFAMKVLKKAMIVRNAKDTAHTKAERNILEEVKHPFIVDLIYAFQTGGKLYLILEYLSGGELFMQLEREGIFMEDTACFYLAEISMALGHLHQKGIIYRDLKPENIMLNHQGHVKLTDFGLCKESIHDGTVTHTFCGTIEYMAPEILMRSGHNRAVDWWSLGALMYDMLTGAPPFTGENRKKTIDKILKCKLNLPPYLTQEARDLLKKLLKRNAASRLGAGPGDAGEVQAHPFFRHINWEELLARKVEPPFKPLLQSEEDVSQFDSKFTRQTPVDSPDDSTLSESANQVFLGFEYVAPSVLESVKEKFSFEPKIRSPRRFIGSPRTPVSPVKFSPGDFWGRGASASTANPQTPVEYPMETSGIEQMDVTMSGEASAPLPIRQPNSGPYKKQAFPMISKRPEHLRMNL

| Compound | pIC50 |
| --- | --- |
| FC(F)(F)c1cccc(-c2c[nH]c(C3CCN(c4ccncc4Br)CC3)n2)c1 [Compound 5, 3-bromo-4-(4-{4-[3-(trifluoromethyl)phenyl]-1H-imidazol-2-yl}piperidin-1-yl)pyridine] | 6.50 |
| Cn1cc(-c2ccc(F)c(C(F)(F)F)c2)nc1C1CCN(c2ncnc(N)c2-c2ccc(C(F)(F)F)cc2)CC1 [Compound 16, 6-{4-[4-(4-Fluoro-3-trifluoromethyl-phenyl)-1-methyl-1H-imidazol-2-yl]-piperidin-1-yl}-5-(4-trifluoromethyl-phenyl)-pyrimidin-4-ylamine] | 7.68 |
| Cn1cc(-c2ccc(F)c(C(F)(F)F)c2)nc1C1CCN(c2ncnc(N)c2-c2ccccc2C#N)CC1 [Compound 18, 2-(4-Amino-6-{4-[4-(4-fluoro-3-trifluoromethyl-phenyl)-1-methyl-1H-imidazol-2-yl]-piperidin-1-yl}-pyrimidin-5-yl)-benzonitrile] | 6.60 |
| Cn1cc(-c2ccc(F)c(C(F)(F)F)c2)nc1C1CCN(c2ncnc(N)c2-c2cccc(F)c2)CC1 [Compound 22, 5-(3-Fluoro-phenyl)-6-{4-[4-(4-fluoro-3-trifluoromethyl-phenyl)-1-methyl-1H-imidazol-2-yl]-piperidin-1-yl}-pyrimidin-4-ylamine] | 8.80 |
| Cn1cc(-c2ccc(F)c(C(F)(F)F)c2)nc1C1CCN(c2ncnc(N)c2-c2ccccc2F)CC1 [Compound 23, 5-(2-Fluorophenyl)-6-{4-[4-(4-fluoro-3-trifluoromethyl-phenyl)-1-methyl-1H-imidazol-2-yl]-piperidin-1-yl}-pyrimidin-4-ylamine] | 8.52 |
| Cn1cc(-c2ccc(F)c(C(F)(F)F)c2)nc1C1CCN(c2ncnc(N)c2-c2ccccc2Cl)CC1 [Compound 24, 5-(2-Chlorophenyl)-6-{4-[4-(4-fluoro-3-trifluoromethyl-phenyl)-1-methyl-1H-imidazol-2-yl]-piperidin-1-yl}-pyrimidin-4-ylamine] | 8.28 |
| Cn1cc(-c2ccc(F)c(C(F)(F)F)c2)nc1C1CCN(c2ncnc(N)c2-c2ccc(N3CCOCC3)nc2)CC1 [Compound 25, 6-{4-[4-(4-Fluoro-3-trifluoromethyl-phenyl)-1-methyl-1H-imidazol-2-yl]-piperidin-1-yl}-5-(6-morpholin-4-yl-pyridin-3-yl)-pyrimidin-4-ylamine] | 6.72 |
| Cn1cc(-c2ccc(F)c(C(F)(F)F)c2)nc1C1CCN(c2ncnc(N)c2-c2ccc(N3CCNCC3)nc2)CC1 [Compound 26, 6-{4-[4-(4-Fluoro-3-trifluoromethyl-phenyl)-1-methyl-1H-imidazol-2-yl]-piperidin-1-yl}-5-(6-piperazin-1-yl-pyridin-3-yl)-pyrimidin-4-ylamine] | 6.00 |
| Cn1cc(-c2ccc(F)c(C(F)(F)F)c2)nc1C1CCN(c2ncnc(N)c2-c2ccc(F)c(F)c2)CC1 [Compound 30, 5-(3,4-Difluoro-phenyl)-6-{4-[4-(4-fluoro-3-trifluoromethyl-phenyl)-1-methyl-1H-imidazol-2-yl]-piperidin-1-yl}-pyrimidin-4-ylamine] | 8.20 |
| COc1ccc(-c2c(N)ncnc2N2CCC(c3nc(-c4cccc(C(F)(F)F)c4)c[nH]3)CC2)cc1 [Compound 33, 5-(4-Methoxy-phenyl)-6-{4-[4-(3-trifluoromethyl-phenyl)-1H-imidazol-2-yl]-piperidin-1-yl}-pyrimidin-4-ylamine] | 8.57 |
| COc1ccc(-c2cncnc2N2CCC(c3nc(-c4cccc(C(F)(F)F)c4)c[nH]3)CC2)cc1 [Compound 34, 5-(4-Methoxy-phenyl)-4-{4-[4-(3-trifluoromethyl-phenyl)-1H-imidazol-2-yl]-piperidin-1-yl}-pyrimidine] | 7.92 |
| COc1ccc(-c2cnccc2N2CCC(c3nc(-c4cccc(C(F)(F)F)c4)c[nH]3)CC2)cc1 [Compound 35, 3-(4-methoxyphenyl)-4-(4-{4-[3-(trifluoromethyl)phenyl]-1H-imidazol-2-yl}piperidin-1-yl)pyridine] | 8.05 |
| Cn1cc(-c2ccc(F)c(C(F)(F)F)c2)nc1C1CCN(c2ncncc2-c2ccc(F)cc2)CC1 [Compound 42, 5-(4-Fluoro-phenyl)-4-{4-[4-(4-fluoro-3-trifluoromethyl-phenyl)-1-methyl-1H-imidazol-2-yl]-piperidin-1-yl}-pyrimidine] | 8.27 |
| Cn1cc(-c2ccc(F)c(C(F)(F)F)c2)nc1C1CCN(c2ncnc(N)c2-c2cccc(Cl)c2)CC1 [Compound 51, 5-(3-Chloro-phenyl)-6-{4-[4-(4-fluoro-3-trifluoromethyl-phenyl)-1-methyl-1H-imidazol-2-yl]-piperidin-1-yl}-pyrimidin-4-ylamine] | 7.66 |
| Cn1cc(-c2ccc(F)c(C(F)(F)F)c2)nc1C1CCN(c2ncnc(N)c2-c2ccc(C#N)c(F)c2)CC1 [Compound 52, 4-(4-Amino-6-{4-[4-(4-fluoro-3-trifluoromethyl-phenyl)-1-methyl-1H-imidazol-2-yl]-piperidin-1-yl}-pyrimidin-5-yl)-2-fluoro-benzonitrile] | 8.30 |

Now from value to compound:

| pIC50 | Compound |
| --- | --- |
| 7.24 | Cn1c(-c2ccc(F)c(C(F)(F)F)c2)cnc1C1CCN(c2ncnc(N)c2Br)CC1 [Compound 2, 5-Bromo-6-{4-[5-(4-fluoro-3-trifluoromethyl-phenyl)-1-methyl-1H-imidazol-2-yl]-piperidin-1-yl}-pyrimidin-4-ylamine] |
| 7.06 | Cn1cc(-c2ccc(F)c(C(F)(F)F)c2)nc1C1CCN(c2cc(N)ncn2)CC1 [Compound 12, 6-{4-[4-(4-Fluoro-3-trifluoromethyl-phenyl)-1-methyl-1H-imidazol-2-yl]-piperidin-1-yl}-pyrimidin-4-ylamine] |
| 8.43 | Cn1cc(-c2ccc(F)c(C(F)(F)F)c2)nc1C1CCN(c2ncnc(N)c2-c2ccccc2)CC1 [Compound 21, 6-{4-[4-(4-Fluoro-3-trifluoromethyl-phenyl)-1-methyl-1H-imidazol-2-yl]-piperidin-1-yl}-5-phenyl-pyrimidin-4-ylamine] |
| 8.52 | Cn1cc(-c2ccc(F)c(C(F)(F)F)c2)nc1C1CCN(c2ncnc(N)c2-c2ccc(F)nc2)CC1 [Compound 27, 5-(6-Fluoro-pyridin-3-yl)-6-{4-[4-(4-fluoro-3-trifluoromethyl-phenyl)-1-methyl-1H-imidazol-2-yl]-piperidin-1-yl}-pyrimidin-4-ylamine] |
| 8.36 | Cn1cc(-c2ccc(F)c(C(F)(F)F)c2)nc1C1CCN(c2ncnc(N)c2-c2cnc(N)nc2)CC1 [Compound 28, 6′-{4-[4-(4-Fluoro-3-trifluoromethyl-phenyl)-1-methyl-1H-imidazol-2-yl]-piperidin-1-yl}-[5,5]bipyrimidinyl-2,4′-diamine] |
| 8.01 | COc1cccc(-c2c(N)ncnc2N2CCC(c3nc(-c4ccc(F)c(C(F)(F)F)c4)cn3C)CC2)c1 [Compound 29, 6-{4-[4-(4-Fluoro-3-trifluoromethyl-phenyl)-1-methyl-1H-imidazol-2-yl]-piperidin-1-yl}-5-(3-methoxyphenyl)-pyrimidin-4-ylamine] |
| 8.12 | CN(C)c1ncc(-c2c(N)ncnc2N2CCC(c3nc(-c4ccc(F)c(C(F)(F)F)c4)cn3C)CC2)cn1 [Compound 31, 6′-{4-[4-(4-Fluoro-3-trifluoromethyl-phenyl)-1-methyl-1H-imidazol-2-yl]-piperidin-1-yl}-N2,N2-dimethyl-[5,5]bipyrimidinyl-2,4′-diamine] |
| 8.38 | Cn1cc(-c2ccc(F)c(C(F)(F)F)c2)nc1C1CCN(c2ncnc(N)c2-c2ccc(CN)cc2)CC1 [Compound 32, 5-(4-Aminomethyl-phenyl)-6-{4-[4-(4-fluoro-3-trifluoromethyl-phenyl)-1-methyl-1H-imidazol-2-yl]-piperidin-1-yl}-pyrimidin-4-ylamine] |
| 8.46 | COC(=O)/C=C/c1c(N)ncnc1N1CCC(c2nc(-c3ccc(F)c(C(F)(F)F)c3)cn2C)CC1 [Compound 45, (E)-3-(4-Amino-6-{4-[4-(4-fluoro-3-trifluoromethyl-phenyl)-1-methyl-1H-imidazol-2-yl]-piperidin-1-yl}-pyrimidin-5-yl)-acrylic acid methyl ester] |
| 7.85 | Cn1cc(-c2ccc(F)c(C(F)(F)F)c2)nc1C1CCN(c2ncnc(N)c2/C=C/C(N)=O)CC1 [Compound 46, (E)-3-(4-Amino-6-{4-[4-(4-fluoro-3-trifluoromethyl-phenyl)-1-methyl-1H-imidazol-2-yl]-piperidin-1-yl}-pyrimidin-5-yl)-acrylamide] |
| 8.37 | COc1cncc(-c2c(N)ncnc2N2CCC(c3nc(-c4ccc(F)c(C(F)(F)F)c4)cn3C)CC2)c1 [Compound 47, 6-{4-[4-(4-Fluoro-3-trifluoromethyl-phenyl)-1-methyl-1H-imidazol-2-yl]-piperidin-1-yl}-5-(5-methoxy-pyridin-3-yl)-pyrimidin-4-ylamine] |
| 8.35 | Cn1cc(-c2ccc(F)c(C(F)(F)F)c2)nc1C1CCN(c2ncnc(N)c2-c2ccc(Cl)nc2)CC1 [Compound 50, 5-(6-Chloro-pyridin-3-yl)-6-{4-[4-(4-fluoro-3-trifluoromethyl-phenyl)-1-methyl-1H-imidazol-2-yl]-piperidin-1-yl}-pyrimidin-4-ylamine] |
| 9.22 | CCc1c(N)ncnc1N1CCC(c2nc(-c3ccnc(C(F)(F)F)c3)cn2CCNC)CC1 [Compound 171, 5-ethyl-6-(4-(1-(2-(methylamino)ethyl)-4-(2-(trifluoromethyl)pyridin-4-yl)-1H-imidazol-2-yl)piperidin-1-yl)pyrimidin-4-amine] |
| 9.10 | CCOc1c(N)ncnc1N1CCC(c2nc(-c3ccc(F)c(Cl)c3)cn2CCN2CCCC2)CC1 [Compound 289] |
